Assay results taken from ChEMBL document CHEMBL3397011, “A novel molecule with notable activity against multi-drug resistant tuberculosis” (Bioorg Med Chem Lett, 2015).

Columns and labels:
[1] = target: T1, UDP-glucuronosyltransferase 1A9 (Homo sapiens, UniProt O60656); assay: Activation of UGT1A9 in pooled mixed-gender human liver microsomes at 50 uM preincubated at 37 degC for 3 mins before UDPGA addition by HPLC method; type: ADME
T1 sequence (O60656 whole entry): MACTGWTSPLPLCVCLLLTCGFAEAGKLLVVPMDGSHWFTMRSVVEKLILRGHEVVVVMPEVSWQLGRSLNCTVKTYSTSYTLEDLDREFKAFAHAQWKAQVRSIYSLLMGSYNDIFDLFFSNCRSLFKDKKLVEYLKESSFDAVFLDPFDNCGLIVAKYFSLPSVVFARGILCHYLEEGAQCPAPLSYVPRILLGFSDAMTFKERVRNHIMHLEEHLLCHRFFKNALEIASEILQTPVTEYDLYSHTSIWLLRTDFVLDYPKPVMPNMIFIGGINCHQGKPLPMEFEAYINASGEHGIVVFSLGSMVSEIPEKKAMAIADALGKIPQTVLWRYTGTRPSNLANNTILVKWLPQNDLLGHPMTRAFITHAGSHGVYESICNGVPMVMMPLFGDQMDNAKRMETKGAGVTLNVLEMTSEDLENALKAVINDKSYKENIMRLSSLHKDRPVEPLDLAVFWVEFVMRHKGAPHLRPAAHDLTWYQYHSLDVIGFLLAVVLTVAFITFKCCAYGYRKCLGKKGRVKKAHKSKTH

[2] = tested on: Human immunodeficiency virus 1; assay: Antiviral activity against HIV1 infected in human MAGI-R5 cells; type: functional, organism-based; settings: Human immunodeficiency virus 1, MAGI-R5
[3] = target: T2, UDP-glucuronosyltransferase 1A6 (Homo sapiens, UniProt P19224); assay: Drug metabolism assessed as UGT1A6-mediated compound glucuronidation in pooled mixed-gender human liver microsomes at 50 uM preincubated at 37 degC for 3 mins before UDPGA addition by HPLC method; type: ADME
T2 sequence (P19224 whole entry): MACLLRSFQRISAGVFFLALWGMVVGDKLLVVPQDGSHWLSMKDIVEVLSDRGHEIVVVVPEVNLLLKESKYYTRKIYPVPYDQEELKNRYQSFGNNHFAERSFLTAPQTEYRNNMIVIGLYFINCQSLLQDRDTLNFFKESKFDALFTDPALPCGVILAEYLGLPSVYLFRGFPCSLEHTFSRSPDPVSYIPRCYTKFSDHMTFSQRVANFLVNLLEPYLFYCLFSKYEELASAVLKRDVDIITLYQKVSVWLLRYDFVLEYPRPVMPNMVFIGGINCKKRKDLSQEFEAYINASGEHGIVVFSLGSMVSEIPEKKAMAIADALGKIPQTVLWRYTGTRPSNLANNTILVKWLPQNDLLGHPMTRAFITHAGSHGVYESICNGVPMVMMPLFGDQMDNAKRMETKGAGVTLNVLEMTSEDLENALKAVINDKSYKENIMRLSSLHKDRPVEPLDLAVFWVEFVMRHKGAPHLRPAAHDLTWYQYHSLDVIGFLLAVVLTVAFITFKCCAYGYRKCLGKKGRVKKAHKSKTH

[4] = target: T3, UDP-glucuronosyltransferase 1A4 (Homo sapiens, UniProt P22310); assay: Drug metabolism assessed as UGT1A4-mediated compound glucuronidation in pooled mixed-gender human liver microsomes at 50 uM preincubated at 37 degC for 3 mins before UDPGA addition by HPLC method; type: ADME
T3 sequence (P22310 whole entry): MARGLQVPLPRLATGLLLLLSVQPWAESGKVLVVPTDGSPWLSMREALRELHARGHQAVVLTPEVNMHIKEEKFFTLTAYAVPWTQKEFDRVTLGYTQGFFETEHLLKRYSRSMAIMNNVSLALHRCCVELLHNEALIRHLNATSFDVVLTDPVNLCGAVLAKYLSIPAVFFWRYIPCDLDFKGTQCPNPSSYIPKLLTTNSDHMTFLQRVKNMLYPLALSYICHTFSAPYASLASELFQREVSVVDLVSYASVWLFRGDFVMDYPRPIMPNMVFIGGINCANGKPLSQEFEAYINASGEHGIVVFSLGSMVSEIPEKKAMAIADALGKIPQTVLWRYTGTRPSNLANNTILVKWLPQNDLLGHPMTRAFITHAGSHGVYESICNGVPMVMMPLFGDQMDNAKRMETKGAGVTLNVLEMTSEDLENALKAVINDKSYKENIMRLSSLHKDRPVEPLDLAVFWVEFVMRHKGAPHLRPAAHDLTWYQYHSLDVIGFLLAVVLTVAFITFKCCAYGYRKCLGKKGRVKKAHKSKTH

Cytochrome P450 2D6 [5] = target: T4, Cytochrome P450 2D6 (Homo sapiens, UniProt P10635); assay: Inhibition of […] in pooled mixed-gender human liver microsomes using dextromethorphan substrate in presence of NADPH pre-incubated for 3 mins by HPLC-UV detection method; type: ADME
T4 sequence (P10635 whole entry): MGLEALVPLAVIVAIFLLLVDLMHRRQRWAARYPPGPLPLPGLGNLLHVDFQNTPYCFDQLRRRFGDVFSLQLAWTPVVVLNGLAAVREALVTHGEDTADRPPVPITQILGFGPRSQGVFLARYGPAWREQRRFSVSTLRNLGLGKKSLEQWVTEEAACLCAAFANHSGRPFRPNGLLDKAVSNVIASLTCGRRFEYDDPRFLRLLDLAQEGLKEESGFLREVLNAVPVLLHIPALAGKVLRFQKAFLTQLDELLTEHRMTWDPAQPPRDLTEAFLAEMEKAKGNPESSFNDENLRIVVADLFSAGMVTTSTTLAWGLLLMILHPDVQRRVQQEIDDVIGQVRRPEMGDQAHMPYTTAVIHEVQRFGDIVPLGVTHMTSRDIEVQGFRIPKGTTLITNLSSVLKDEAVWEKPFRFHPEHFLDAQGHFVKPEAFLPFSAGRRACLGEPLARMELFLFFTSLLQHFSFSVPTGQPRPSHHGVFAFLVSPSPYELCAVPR

Cytochrome P450 2D6 [6] = target: T4, Cytochrome P450 2D6; assay: Activation of […] in pooled mixed-gender human liver microsomes using dextromethorphan substrate in presence of NADPH pre-incubated for 3 mins by HPLC-UV detection method; type: ADME
[7] = target: T5, UDP-glucuronosyltransferase 2B7 (Homo sapiens, UniProt P16662); assay: Inhibition of […] in pooled mixed-gender human liver microsomes using 4-methylumbelliferone substrate by HPLC method; type: ADME
T5 sequence (P16662 whole entry): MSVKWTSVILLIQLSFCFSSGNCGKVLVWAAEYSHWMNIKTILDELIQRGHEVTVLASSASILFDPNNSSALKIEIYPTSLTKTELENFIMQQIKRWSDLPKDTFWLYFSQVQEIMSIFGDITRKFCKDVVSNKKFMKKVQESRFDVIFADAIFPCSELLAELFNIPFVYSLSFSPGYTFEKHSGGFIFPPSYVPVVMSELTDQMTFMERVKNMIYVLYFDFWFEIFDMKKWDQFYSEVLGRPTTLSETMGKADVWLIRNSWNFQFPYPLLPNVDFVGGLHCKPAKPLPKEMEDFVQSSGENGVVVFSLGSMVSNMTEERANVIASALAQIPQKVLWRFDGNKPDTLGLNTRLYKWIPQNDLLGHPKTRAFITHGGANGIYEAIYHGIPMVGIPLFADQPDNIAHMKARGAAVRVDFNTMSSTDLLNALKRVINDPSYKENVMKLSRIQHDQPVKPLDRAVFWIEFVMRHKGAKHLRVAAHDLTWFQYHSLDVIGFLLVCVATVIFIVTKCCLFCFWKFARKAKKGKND

Cytochrome P450 3A4 [8] = target: T6, Cytochrome P450 3A4 (Homo sapiens, UniProt P08684); assay: Inhibition of CYP3A4 in pooled mixed-gender human liver microsomes using testosterone substrate in presence of NADPH pre-incubated for 3 mins by HPLC-UV detection method; type: ADME
T6 sequence (P08684 whole entry): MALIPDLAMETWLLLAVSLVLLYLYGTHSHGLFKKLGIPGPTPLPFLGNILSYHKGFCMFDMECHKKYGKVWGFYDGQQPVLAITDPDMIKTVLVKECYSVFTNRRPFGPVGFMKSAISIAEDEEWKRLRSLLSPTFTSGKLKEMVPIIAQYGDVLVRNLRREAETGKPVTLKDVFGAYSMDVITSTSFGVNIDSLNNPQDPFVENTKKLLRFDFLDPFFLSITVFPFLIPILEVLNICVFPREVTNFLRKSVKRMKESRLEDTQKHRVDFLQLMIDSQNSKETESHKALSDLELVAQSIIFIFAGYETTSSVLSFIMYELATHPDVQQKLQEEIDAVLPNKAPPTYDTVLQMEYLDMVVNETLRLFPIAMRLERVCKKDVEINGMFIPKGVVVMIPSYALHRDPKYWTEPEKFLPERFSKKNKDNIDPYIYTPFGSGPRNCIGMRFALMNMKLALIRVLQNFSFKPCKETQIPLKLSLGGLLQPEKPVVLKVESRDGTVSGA

[9] = target: T5, UDP-glucuronosyltransferase 2B7; assay: Activation of UGT2B7 in pooled mixed-gender human liver microsomes at 50 uM preincubated at 37 degC for 3 mins before UDPGA addition by HPLC method; type: ADME
Cytochrome P450 2D6 [10] = target: T4, Cytochrome P450 2D6; assay: Inhibition of […] in pooled mixed-gender human liver microsomes at <25 uM using dextromethorphan substrate in presence of NADPH pre-incubated for 3 mins by HPLC-UV detection method; type: ADME
Cytochrome P450 3A4 [11] = target: T6, Cytochrome P450 3A4; assay: Activation of CYP3A4 in pooled mixed-gender human liver microsomes using testosterone substrate in presence of NADPH pre-incubated for 3 mins by HPLC-UV detection method; type: ADME
[12] = Dissociation constant, pKa of the compound; type: physicochemical
Cytochrome P450 3A4 [13] = target: T6, Cytochrome P450 3A4; assay: Inhibition of CYP3A4 in pooled mixed-gender human liver microsomes using triazolam substrate in presence of NADPH pre-incubated for 3 mins by HPLC-UV detection method; type: ADME
[14] = target: T2, UDP-glucuronosyltransferase 1A6; assay: Inhibition of UGT1A6 in pooled mixed-gender human liver microsomes using 4-methylumbelliferone substrate by HPLC method; type: ADME
[15] = target: T5, UDP-glucuronosyltransferase 2B7; assay: Drug metabolism assessed as UGT2B7-mediated compound glucuronidation in pooled mixed-gender human liver microsomes at 50 uM preincubated at 37 degC for 3 mins before UDPGA addition by HPLC method; type: ADME
[16] = target: T7, UDP-glucuronosyltransferase 1A1 (Homo sapiens, UniProt P22309); assay: Activation of UGT1A1 in pooled mixed-gender human liver microsomes at 50 uM preincubated at 37 degC for 3 mins before UDPGA addition by HPLC method; type: ADME
T7 sequence (P22309 whole entry): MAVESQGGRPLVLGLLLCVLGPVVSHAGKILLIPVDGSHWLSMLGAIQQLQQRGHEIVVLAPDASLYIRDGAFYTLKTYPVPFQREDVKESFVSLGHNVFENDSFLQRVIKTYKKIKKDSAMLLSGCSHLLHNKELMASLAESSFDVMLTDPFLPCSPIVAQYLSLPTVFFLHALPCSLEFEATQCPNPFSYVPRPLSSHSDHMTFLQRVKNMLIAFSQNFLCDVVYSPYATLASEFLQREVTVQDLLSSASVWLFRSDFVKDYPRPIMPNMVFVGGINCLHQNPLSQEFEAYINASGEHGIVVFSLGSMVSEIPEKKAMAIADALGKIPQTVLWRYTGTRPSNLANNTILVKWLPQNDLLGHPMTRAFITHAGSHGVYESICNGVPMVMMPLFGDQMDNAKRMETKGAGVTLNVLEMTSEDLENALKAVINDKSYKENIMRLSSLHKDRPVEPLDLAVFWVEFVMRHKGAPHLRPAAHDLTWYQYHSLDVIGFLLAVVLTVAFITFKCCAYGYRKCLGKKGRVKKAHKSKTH

[17] = target: T7, UDP-glucuronosyltransferase 1A1; assay: Drug metabolism assessed as UGT1A1-mediated compound glucuronidation in pooled mixed-gender human liver microsomes at 50 uM preincubated at 37 degC for 3 mins before UDPGA addition by HPLC method; type: ADME
Cytochrome P450 3A4 [18] = target: T6, Cytochrome P450 3A4; assay: Activation of CYP3A4 in pooled mixed-gender human liver microsomes using triazolam substrate in presence of NADPH pre-incubated for 3 mins by HPLC-UV detection method; type: ADME
[19] = target: T1, UDP-glucuronosyltransferase 1A9; assay: Drug metabolism assessed as UGT1A9-mediated compound glucuronidation in pooled mixed-gender human liver microsomes at 50 uM preincubated at 37 degC for 3 mins before UDPGA addition by HPLC method; type: ADME
[20] = target: T1, UDP-glucuronosyltransferase 1A9; assay: Inhibition of UGT1A9 in pooled mixed-gender human liver microsomes using 4-methylumbelliferone substrate by HPLC method; type: ADME
[21] = target: T3, UDP-glucuronosyltransferase 1A4; assay: Activation of UGT1A4 in pooled mixed-gender human liver microsomes at 50 uM preincubated at 37 degC for 3 mins before UDPGA addition by HPLC method; type: ADME
[22] = target: T3, UDP-glucuronosyltransferase 1A4; assay: Activation of UGT1A4 in pooled mixed-gender human liver microsomes at 100 uM preincubated at 37 degC for 3 mins before UDPGA addition by HPLC method; type: ADME
[23] = Toxicity against macrophages (unknown origin) assessed cell viability at 4 times MIC level after 7 days by MTT assay; type: cell-based, Macrophage; settings: read-out: Activity
[24] = target: T3, UDP-glucuronosyltransferase 1A4; assay: Inhibition of UGT1A4 in pooled mixed-gender human liver microsomes using 4-methylumbelliferone substrate by HPLC method; type: ADME
Cytochrome P450 3A4 [25] = target: T6, Cytochrome P450 3A4; assay: Inhibition of CYP3A4 in pooled mixed-gender human liver microsomes at <25 uM using testosterone substrate in presence of NADPH pre-incubated for 3 mins by HPLC-UV detection method; type: ADME
[26] = target: T2, UDP-glucuronosyltransferase 1A6; assay: Activation of UGT1A6 in pooled mixed-gender human liver microsomes at 50 uM preincubated at 37 degC for 3 mins before UDPGA addition by HPLC method; type: ADME
Cytochrome P450 3A4 [27] = target: T6, Cytochrome P450 3A4; assay: Inhibition of CYP3A4 in pooled mixed-gender human liver microsomes at <25 uM using triazolam substrate in presence of NADPH pre-incubated for 3 mins by HPLC-UV detection method; type: ADME
Liver microsome = assay: Half life in pooled mixed-gender human liver microsomes at 50 uM in presence of NADPH pre-incubated for 3 mins before NADPH addition followed by incubation for 60 mins by reversed-phase HPLC method; type: ADME; settings: 1 h
[28] = target: T7, UDP-glucuronosyltransferase 1A1; assay: Inhibition of UGT1A1 in pooled mixed-gender human liver microsomes using 4-methylumbelliferone substrate by HPLC method; type: ADME

SMILES: O=C(/C=C(\O)C(=O)N1CCN(c2ccc(-n3cccc3)cc2)CC1)c1cc(Cc2cc(F)cc(F)c2)cn(Cc2ccccc2F)c1=O
- Activity [1]: Not Active
- IC50 [2]: 0.05 µM
- Drug metabolism [3]: metabolite_notdetected
- Drug metabolism [4]: metabolite_notdetected
- IC50 (Cytochrome P450 2D6 [5]): > 185 µM
- Activity (Cytochrome P450 2D6 [6]): Not Active
- IC50 [7]: > 300 µM
- IC50 (Cytochrome P450 3A4 [8]): > 50 µM
- Activity [9]: Not Active
- inhibition (INH) (Cytochrome P450 2D6 [10]): Not Active
- Activity (Cytochrome P450 3A4 [11]): Not Active
- pKa [12]: 9
- IC50 (Cytochrome P450 3A4 [13]): > 85 µM
- IC50 [14]: > 300 µM
- Drug metabolism [15]: metabolite_notdetected
- Activity [16]: Not Active
- Drug metabolism [17]: metabolite_notdetected
- Activity (Cytochrome P450 3A4 [18]): Not Active
- Drug metabolism [19]: metabolite_notdetected
- IC50 [20]: > 300 µM
- Activity [21]: Not Active
- Activity [22]: Active
- viability at 168 h, 4 times MIC [23]: > 85%
- IC50 [24]: Not Active
- inhibition (INH) (Cytochrome P450 3A4 [25]): Not Active
- Activity [26]: Not Active
- inhibition (INH) (Cytochrome P450 3A4 [27]): Not Active
- t1/2 (Liver microsome): 14.4 h
- IC50 [28]: > 300 µM

SMILES: Cc1nnc(C(=O)NC(C)(C)c2nc(C(=O)NCc3ccc(F)cc3)c(O)c(=O)n2C)o1 [RALTEGRAVIR]
- Drug metabolism [3]: metabolite_detected
- Drug metabolism [4]: metabolite_detected
- Drug metabolism [15]: metabolite_detected
- Drug metabolism [17]: metabolite_detected
- Drug metabolism [19]: metabolite_detected

SMILES: [H]/N=C(/N)N[C@H]1[C@H](O)[C@@H](O)[C@H](O[C@@H]2O[C@@H](C)[C@](O)(C=O)[C@H]2O[C@@H]2O[C@@H](CO)[C@H](O)[C@@H](O)[C@@H]2NC)[C@@H](N/C(N)=N\[H])[C@@H]1O [STREPTOMYCIN]
- viability at 168 h, 4 times MIC [23]: 90%
